Experimental data: US8791108B2, “Inhibitors of human immunodeficiency virus replication” (priority 2011, dated 2014)
Read-outs that look alike come from different tables or passages of the source.

Tested on: recombinant NL-Rluc virus
Assay: Inhibition of HIV replication (NL-RLuc luciferase reporter virus, MT-2 cells)
Type: cell-based
Settings: Human immunodeficiency virus 1, MT2, 120 h

| Compound | EC50 (read-out: Activity) | EC50 (read-out: EC50 μM) |
| --- | --- | --- |
| Cc1nc2cc(C(=O)NCc3ccc(F)c(C(F)F)c3)nn2c(-c2cc(F)c3c(c2C)CCCO3)c1[C@H](OC(C)(C)C)C(=O)O [Example 27] | < 0.1 µM |  |
| Cc1nc2cc(C(=O)NCc3ccc(F)cc3S(C)(=O)=O)nn2c(-c2cc(F)c3c(c2C)CCCO3)c1[C@H](OC(C)(C)C)C(=O)O [Example 28, (2S)-2-(tert-butoxy)-2-(2-((4-fluoro-2-(methylsulfonyl)benzyl)carbamoyl)-7-(8-fluoro-5-methylchroman-6-yl)-5-methylpyrazolo[1,5-a]pyrimidin-6-yl)acetic acid] | 0.1 to 1 µM |  |
| COc1cc(F)ccc1CNC(=O)c1cc2nc(C)c([C@H](OC(C)(C)C)C(=O)O)c(-c3cc(F)c4c(c3C)CCCO4)n2n1 [Example 29, (2S)-2-(tert-butoxy)-2-(2-((4-fluoro-2-methoxybenzyl)carbamoyl)-7-(8-fluoro-5-methylchroman-6-yl)-5-methylpyrazolo[1,5-a]pyrimidin-6-yl)acetic acid] | < 0.1 µM |  |
| CNC(=O)c1cc(F)ccc1CNC(=O)c1cc2nc(C)c([C@H](OC(C)(C)C)C(=O)O)c(-c3cc(F)c4c(c3C)CCCO4)n2n1 [Example 30, (2S)-2-(tert-butoxy)-2-(2-((4-fluoro-2-(methylcarbamoyl)benzyl)carbamoyl)-7-(8-fluoro-5-methylchroman-6-yl)-5-methylpyrazolo[1,5-a]pyrimidin-6-yl)acetic acid] | 0.1 to 1 µM | 3.2 µM |
| CCCCc1ccc(CNC(=O)c2cc3nc(C)c([C@H](OC(C)(C)C)C(=O)O)c(-c4cc(F)c5c(c4C)CCCO5)n3n2)cc1 [Example 31, (2S)-2-(tert-butoxy)-2-(2-((4-butylbenzyl)carbamoyl)-7-(8-fluoro-5-methylchroman-6-yl)-5-methylpyrazolo[1,5-a]pyrimidin-6-yl)acetic acid] | < 0.1 µM |  |
| Cc1ccc(CN(C)C(=O)c2cc3nc(C)c([C@H](OC(C)(C)C)C(=O)O)c(-c4cc(F)c5c(c4C)CCCO5)n3n2)cc1 [Example 32, (2S)-2-(tert-butoxy)-2-(7-(8-fluoro-5-methylchroman-6-yl)-5-methyl-2-(methyl(4-methylbenzyl)carbamoyl)pyrazolo[1,5-a]pyrimidin-6-yl)acetic acid] | < 0.1 µM |  |
| Cc1nc2cc(C(=O)N(C)Cc3ccccc3)nn2c(-c2cc(F)c3c(c2C)CCCO3)c1[C@H](OC(C)(C)C)C(=O)O [Example 33, (2S)-2-(2-(benzyl(methyl)carbamoyl)-7-(8-fluoro-5-methylchroman-6-yl)-5-methylpyrazolo[1,5-a]pyrimidin-6-yl)-2-(tert-butoxy)acetic acid] | < 0.1 µM |  |
| Cc1nc2cc(C(=O)NCc3ccc4c(c3)OCO4)nn2c(-c2cc(F)c3c(c2C)CCCO3)c1[C@H](OC(C)(C)C)C(=O)O [Example 34, (2S)-2-(2-((benzo[d][1,3]dioxol-5-ylmethyl)carbamoyl)-7-(8-fluoro-5-methylchroman-6-yl)-5-methylpyrazolo[1,5-a]pyrimidin-6-yl)-2-(tert-butoxy)acetic acid] | < 0.1 µM |  |
| COc1cc(CNC(=O)c2cc3nc(C)c([C@H](OC(C)(C)C)C(=O)O)c(-c4cc(F)c5c(c4C)CCCO5)n3n2)ccc1F [Example 35, (2S)-2-(tert-butoxy)-2-(2-((4-fluoro-3-methoxybenzyl)carbamoyl)-7-(8-fluoro-5-methylchroman-6-yl)-5-methylpyrazolo[1,5-a]pyrimidin-6-yl)acetic acid] | < 0.1 µM |  |
| Cc1nc2cc(C(=O)NCc3ncc(F)cc3F)nn2c(-c2cc(F)c3c(c2C)CCCO3)c1[C@H](OC(C)(C)C)C(=O)O [Example 36, (2S)-2-(tert-butoxy)-2-(2-(((3,5-difluoropyridin-2-yl)methyl)carbamoyl)-7-(8-fluoro-5-methylchroman-6-yl)-5-methylpyrazolo[1,5-a]pyrimidin-6-yl)acetic acid] | 0.1 to 1 µM | 0.255 µM |
| Cc1nc2cc(C(=O)N(C)CCCn3ccnc3)nn2c(-c2cc(F)c3c(c2C)CCCO3)c1[C@H](OC(C)(C)C)C(=O)O [Example 37, (2S)-2-(2-((3-(1H-imidazol-1-yl)propyl)(methyl)carbamoyl)-7-(8-fluoro-5-methylchroman-6-yl)-5-methylpyrazolo[1,5-a]pyrimidin-6-yl)-2-(tert-butoxy)acetic acid] | > 1 µM | 20 µM |
| Cc1nc2cc(C(=O)NCc3ccco3)nn2c(-c2cc(F)c3c(c2C)CCCO3)c1[C@H](OC(C)(C)C)C(=O)O [Example 38, (2S)-2-(tert-butoxy)-2-(7-(8-fluoro-5-methylchroman-6-yl)-2-((furan-2-ylmethyl)carbamoyl)-5-methylpyrazolo[1,5-a]pyrimidin-6-yl)acetic acid] | 0.1 to 1 µM | 0.167 µM |
| Cc1nc2cc(C(=O)NC(C)c3ccccc3)nn2c(-c2cc(F)c3c(c2C)CCCO3)c1[C@H](OC(C)(C)C)C(=O)O (stereo partly shown) [Example 39] | < 0.1 µM |  |
| Cc1nc2cc(C(=O)NCc3ccccc3Cl)nn2c(-c2cc(F)c3c(c2C)CCCO3)c1[C@H](OC(C)(C)C)C(=O)O [Example 40, (2S)-2-(tert-butoxy)-2-(2-((2-chlorobenzyl)carbamoyl)-7-(8-fluoro-5-methylchroman-6-yl)-5-methylpyrazolo[1,5-a]pyrimidin-6-yl)acetic acid] | < 0.1 µM |  |
| COc1ccc(CNC(=O)c2cc3nc(C)c([C@H](OC(C)(C)C)C(=O)O)c(-c4cc(F)c5c(c4C)CCCO5)n3n2)cc1OC [Example 41, (2S)-2-(tert-butoxy)-2-(2-((3,4-dimethoxybenzyl)carbamoyl)-7-(8-fluoro-5-methylchroman-6-yl)-5-methylpyrazolo[1,5-a]pyrimidin-6-yl)acetic acid] | 0.1 to 1 µM |  |
| COc1ccccc1CNC(=O)c1cc2nc(C)c([C@H](OC(C)(C)C)C(=O)O)c(-c3cc(F)c4c(c3C)CCCO4)n2n1 [Example 42, (2S)-2-(tert-butoxy)-2-(7-(8-fluoro-5-methylchroman-6-yl)-2-((2-methoxybenzyl)carbamoyl)-5-methylpyrazolo[1,5-a]pyrimidin-6-yl)acetic acid] | < 0.1 µM |  |
| Cc1nc2cc(C(=O)NCC3CC3)nn2c(-c2cc(F)c3c(c2C)CCCO3)c1[C@H](OC(C)(C)C)C(=O)O [Example 43, (2S)-2-(tert-butoxy)-2-(2-((cyclopropylmethyl)carbamoyl)-7-(8-fluoro-5-methylchroman-6-yl)-5-methylpyrazolo[1,5-a]pyrimidin-6-yl)acetic acid] | 0.1 to 1 µM |  |
| Cc1nc2cc(C(=O)NCc3ccc(OC(F)(F)F)cc3)nn2c(-c2cc(F)c3c(c2C)CCCO3)c1[C@H](OC(C)(C)C)C(=O)O [Example 44, (2S)-2-(tert-butoxy)-2-(7-(8-fluoro-5-methylchroman-6-yl)-5-methyl-2-((4-(trifluoromethoxy)benzyl)carbamoyl)pyrazolo[1,5-a]pyrimidin-6-yl)acetic acid] | < 0.1 µM |  |
| Cc1nc2cc(C(=O)NCc3csc(-c4ccccc4)n3)nn2c(-c2cc(F)c3c(c2C)CCCO3)c1[C@H](OC(C)(C)C)C(=O)O [Example 45, (2S)-2-(tert-butoxy)-2-(7-(8-fluoro-5-methylchroman-6-yl)-5-methyl-2-(((2-phenylthiazol-4-yl)methyl)carbamoyl)pyrazolo[1,5-a]pyrimidin-6-yl)acetic acid] | < 0.1 µM |  |
| Cc1nc2cc(C(=O)NCc3ccc(Cl)cc3)nn2c(-c2cc(F)c3c(c2C)CCCO3)c1[C@H](OC(C)(C)C)C(=O)O [Example 46, (2S)-2-(tert-butoxy)-2-(2((4-chlorobenzyl)carbamoyl)-7-(8-fluoro-5-methylchroman-6-yl)-5-methylpyrazolo[1,5-a]pyrimidin-6-yl)acetic acid] | < 0.1 µM |  |
| Cc1nc2cc(C(=O)NCCNc3ccccc3)nn2c(-c2cc(F)c3c(c2C)CCCO3)c1[C@H](OC(C)(C)C)C(=O)O [Example 47, (2S)-2-(tert-butoxy)-2-(7-(8-fluoro-5-methylchroman-6-yl)-5-methyl-2-((2-(phenylamino)ethyl)carbamoyl)pyrazolo[1,5-a]pyrimidin-6-yl)acetic acid] | 0.1 to 1 µM | 0.281 µM |
| Cc1nc2cc(C(=O)NCCc3ccccc3)nn2c(-c2cc(F)c3c(c2C)CCCO3)c1[C@H](OC(C)(C)C)C(=O)O [Example 48, (2S)-2-(tert-butoxy)-2-(7-(8-fluoro-5-methylchroman-6-yl)-5-methyl-2-(phenethylcarbamoyl)pyrazolo[1,5-a]pyrimidin-6-yl)acetic acid] | < 0.1 µM |  |
| Cc1nc2cc(C(=O)NCCC(C)C)nn2c(-c2cc(F)c3c(c2C)CCCO3)c1[C@H](OC(C)(C)C)C(=O)O [Example 49, (2S)-2-(tert-butoxy)-2-(7-(8-fluoro-5-methylchroman-6-yl)-2-(isopentylcarbamoyl)-5-methylpyrazolo[1,5-a]pyrimidin-6-yl)acetic acid] | < 0.1 µM |  |
| Cc1nc2cc(C(=O)NCCCc3ccccc3)nn2c(-c2cc(F)c3c(c2C)CCCO3)c1[C@H](OC(C)(C)C)C(=O)O [Example 50] | < 0.1 µM |  |
| Cc1nc2cc(C(=O)NCCCn3ccnc3)nn2c(-c2cc(F)c3c(c2C)CCCO3)c1[C@H](OC(C)(C)C)C(=O)O [Example 51] | > 1 µM |  |
| Cc1nc2cc(C(=O)NCc3ccc(N(C)C)cc3)nn2c(-c2cc(F)c3c(c2C)CCCO3)c1[C@H](OC(C)(C)C)C(=O)O [Example 52, (2S)-2-(tert-butoxy)-2-(2-((4-(dimethylamino)benzyl)carbamoyl)-7-(8-fluoro-5-methylchroman-6-yl)-5-methylpyrazolo[1,5-a]pyrimidin-6-yl)acetic acid] | < 0.1 µM |  |
| Cc1nc2cc(C(=O)NCc3ccc(S(N)(=O)=O)cc3)nn2c(-c2cc(F)c3c(c2C)CCCO3)c1[C@H](OC(C)(C)C)C(=O)O [Example 53, (2S)-2-(tert-butoxy)-2-(7-(8-fluoro-5-methylchroman-6-yl)-5-methyl-2-((4-sulfamoylbenzyl)carbamoyl)pyrazolo[1,5-a]pyrimidin-6-yl)acetic acid] | > 1 µM | 3.19 µM |
| Cc1nc2cc(C(=O)NCc3cccc(Cl)c3)nn2c(-c2cc(F)c3c(c2C)CCCO3)c1[C@H](OC(C)(C)C)C(=O)O [Example 54, (2S)-2-(tert-butoxy)-2-(2((3-chlorobenzyl)carbamoyl)-7-(8-fluoro-5-methylchroman-6-yl)-5-methylpyrazolo[1,5-a]pyrimidin-6-yl)acetic acid] | < 0.1 µM |  |
